Test results taken from US8951963B2, “Active cores of peptide triazole HIV-1 entry inhibitors” (priority 2009, dated 2015).
Entries after “also recorded” stand apart in the source; their conditions may differ. Read-outs that look alike come from different tables or passages of the source. *1 amine or outer side, *2 acyl side, *3 side chain or, on linkers, in order; H or OH if unused. Where a SMILES comes first, the peptide text is derived from it. [ ]: non-standard residue; d: D form. X1 = O=C([C@@H]1C[C@H](n2cc([C]34[CH]5[CH]6[CH]7[CH]3[Fe]6754389%10[CH]4[CH]3[CH]8[CH]9[CH]4%10)nn2)CN1[*:1])[*:2]; Cit = NC(=O)NCCC[C@H](N)C(=O)O

Experiments:
[1] = In vitro cytotoxicity, MTT assay; type: cell-based; conditions: human; P4-CCR5 cells, 2 hours, MTT
Method: (§1) P4-CCR5 cells were seeded at a density of 4×10^4 cells/well in a 96 well plate approximately 18 hours prior to experiment. […] The cells were subsequently washed and assessed for viability using a 3-(4,5-dimethylthiazol-2-yl)-2,5-diphenyltetrazolium bromide (MTT) assay of viability (previously described in Krebs et al. (1999). Concentrations were tested in triplicate in two independent assays.

P4-CCR5 cells [2] = assay: In vitro cytotoxicity, MTT assay; type: cell-based; conditions: concentrations as high as 0.1 mg/ml
Method: as §1

[3] = biological target: T1, HIV-1YU-2 gp120 binding to mAb 17b (Human immunodeficiency virus type 1 group M subtype B, UniProt P35961); conditions: Table 12; 100 nM gp120; NA = not active
T1 construct: made in house; host or cells: Drosophila S2 cells (gp120)
From the text: (§2) Where Rhigh is the response value at high inhibitor concentrations and Rlow is response at low inhibitor concentrations. Cone is the concentration of inhibitor, and A1 and A2 are fitting parameters. At IC50 the following is true:
(§3) Under this condition, A1=Conc and is therefore taken as the desired so parameter.

Pseudotyped HIV-1BaL = type: cell-based; conditions: Table 12; HOS.CD4.CCR5 cells, 48 hours; NA = not active; read-out: IC50 (antiviral)
HIV-1 YU2 gp120 [4] = biological target: T2, HIV-1 YU2 gp120 (Human immunodeficiency virus type 1 group M subtype B, UniProt P35961); type: binding; conditions: for dissociation rate constant (koff): Table 11, dissociation rate
T2 construct: made in house; host or cells: Drosophila S2 cells
Method: Surface plasmon resonance (SPR) interaction analyses were performed on a Biacore® 3000 optical biosensor (GE). All experiments were carried out at 25° C. using standard PBS, pH 7.4, with 0.005% Surfactant P20.
Regeneration of the surface was achieved by a one 5-second pulse of 10 mM glycine, pH 1.5.
SPR data analyses were performed using BIAEvaluation 4.0 software (GE). […] Experimental data were fitted to a simple 1:1 binding model with a parameter included for mass transport. […] The inhibition curve was converted into a calibration curve by the use of a fitting function. The fitting was done using the 4-parameter equation in BIAevaluation software: […]

[5] = system: viruses pseudotyped with the VSV-G envelope; type: cell-based
sCD4 = biological target: T3, sCD4 (Homo sapiens, UniProt P01730); assay: SPR control: direct binding of peptide to sCD4 surface; conditions: SPR control experiment
T3 construct: soluble four domain CD4 (sCD4); made in house; host or cells: CHO cells

[6] = biological target: T4, HIV-1YU-2 gp120 binding to sCD4 (Human immunodeficiency virus type 1 group M subtype B, UniProt P35961); conditions: Table 12; 100 nM gp120; NA = not active
T4 construct: made in house; host or cells: Drosophila S2 cells (gp120); CHO cells (sCD4)
From the text: as §2, §3

mAb 17b = assay: SPR control: direct binding of peptide to mAb 17b surface; conditions: SPR control experiment
gp120 = biological target: T5, gp120 (Human immunodeficiency virus type 1 group M subtype B, UniProt P35961); type: binding, HIV-1; conditions: ITC, 25° C., PBS pH 7.4
T5 construct: made in house; host or cells: Drosophila S2 cells
Method: FIGS. 14A-14D are a series of graphs of calorimetric titration data of gp120 with various peptides. […] Data was obtained as 25° C. in PBS, pH 7.4. Experiments in FIGS. 14A and 14B were carried out using a VP-ITC, where 2 μM gp120 in the calorimetric cell (˜1.4 mL) was titrated with 10 μL aliquots of peptide at concentration of 30 μM.
Isothermal titration calorimetric experiments were performed using high-precision calorimetric systems of model VP-ITC or ITC20 from MicroCal Inc. The titrations were performed by stepwise addition of peptide to gp120 contained in the calorimetric cell at a constant temperature of 25° C. […] For the experiments carried out in the VP-ITC the concentration of gp120 was about 2 μM and the syringe contained the peptide at a concentration about 30 μM. For the experiment carried out using ITC20 gp120 was prepared at about 4 μM and the peptide at 50-100 μM. The solutions contained within the calorimetric cells and injector syringes were prepared in PBS, pH 7.4 and thoroughly degassed to avoid bubble formation in the calorimetric cell. The heat evolved upon each injection of the peptide solution was obtained from the integral of the calorimetric signal. The heat associated with binding of a ligand to the protein in the cell was obtained by subtracting the heat of dilution from the heat of reaction.

HIV-1 YU2 gp120 [7] = biological target: T2, HIV-1 YU2 gp120; assay: biochemical; type: binding; conditions: Kd (affinity) for HIV-1 YU2 gp120 as measured by SPR
Method: All surface plasmon resonance experiments (SPR) were performed on a BIA3000 optical biosensor (Biocore, Inc., Uppsala, Sweden). […] For direct binding experiments, YU2 gp120 was immobilized on the surface (˜4000 RU); peptide analytes in PBS buffer were passed over the surface at a flow rate of 50 μL/min, with 5 minute association phase and 5 minute dissociation phase. […] The indicated analytes were passed over the surfaces at a flow rate of 50 μL/minute, with 2.5 minute association phase and 2.5 minute dissociation phase.
Data analysis was performed using BIAEvaluation® 4.0 software (Biacore Inc., NJ). The responses of a buffer injection and responses from the control surface to which the mAb 2B6R was immobilized, were subtracted to account for nonspecific binding. Experimental data were fitted to a simple 1:1 Langmuir binding model with a parameter included for mass transport. The average kinetic parameters (association [ka] and dissociation [kd] rates) generated from a minimum of four datasets were used to define equilibrium association (KA) and dissociation constants (KD).

HIV-1 strain BaL [8] = assay: Combination of HNG-156 and cyanovirin-N, HIV-1 BaL infection of P4-CCR5 cells; type: cell-based
HIV-1 strain BaL [9] = conditions: P4-CCR5 cells; Gopi et al., 2008; read-out: IC50, inhibition of infection by HIV-1 BaL; cited from earlier work
P4-CCR5 cells [10] = conditions: at concentrations corresponding to IC50 values; Gopi et al., 2008; cited from earlier work
HIV-1 strain BaL [11] = assay: Inhibition of HIV-1 infection, whole virus assay in P4-CCR5 cells; type: cell-based; conditions: result of one trial

| Compound | IC50 (Pseudotyped HIV-1BaL) [nM] | dissociation rate constant (koff) (HIV-1 YU2 gp120 [4]) | ΔH (gp120) [kcal/mol] | −TΔS (gp120) | IC50 (HIV-1 strain BaL [9]) [nM] | impact on cell viability (P4-CCR5 cells [10]) | further results |
| --- | --- | --- | --- | --- | --- | --- | --- |
| CC[C@H](C)[C@H](NC(=O)[C@@H](N)CCCNC(=N)N)C(=O)N[C@@H](CC(N)=O)C(=O)N[C@@H](CC(N)=O)C(=O)N[C@H](C(=O)N1C[C@@H](n2cc([C]34[CH]5[CH]6[CH]7[CH]3[Fe]6754389%10[CH]4[CH]3[CH]8[CH]9[CH]4%10)nn2)C[C@H]1C(=O)N[C@@H](Cc1c[nH]c2ccccc12)C(=O)N[C@@H](CO)C(=O)N[C@@H](CCC(=O)O)C(=O)N[C@@H](C)C(=O)N[C@@H](CCSC)C(=O)N[C@@H](CCSC)C(N)=O)[C@@H](C)CC (stereo partly shown) [HNG-156] | – | – | – | – | – | – | CC50 at 2 h [1]: > 59000 nM; effect on P4-CCR5 cell viability (P4-CCR5 cells [2]): no effect |
| CSCC[C@H](NC(=O)[C@H](CCSC)NC(=O)[C@H](C)NC(=O)[C@H](CCC(=O)O)NC(=O)[C@H](CO)NC(=O)[C@H](Cc1c[nH]c2ccccc12)NC(=O)[C@@H]1C[C@H](n2cc([C]34[CH]5[CH]6[CH]7[CH]3[Fe]6754389%10[CH]4[CH]3[CH]8[CH]9[CH]4%10)nn2)CN1)C(N)=O (stereo partly shown) [UM10] (H-[X1]WSEAMM-NH2; N-terminus and C-terminus assumed) | 35000 ± 15000 | 8.90E−04 ± 1.2 1/S | – | – | – | – | mAb 17b (IC50) [3]: unable to inhibit; affinity relative to 12 mer peptide of HNG-156 (HIV-1 YU2 gp120 [4]; lower affinity): 100 fold; inhibition of negative control viruses pseudotyped with the VSV envelope [5]: Neither of these conjugates inhibited; direct binding to sCD4 (sCD4): neither UM10 nor UM12 exhibited direct binding; sCD4 (IC50) [6]: unable to inhibit; also recorded: no IC50 value could be calculated; direct binding to 17b (mAb 17b): neither UM10 nor UM12 exhibited direct binding |
| CC[C@H](C)[C@H](NC(=O)[C@@H](N)CCCNC(=N)N)C(=O)N[C@@H](CC(N)=O)C(=O)N[C@@H](CC(N)=O)C(=O)N[C@H](C(=O)N1C[C@@H](n2cc([C]34[CH]5[CH]6[CH]7[CH]3[Fe]6754389%10[CH]4[CH]3[CH]8[CH]9[CH]4%10)nn2)C[C@H]1C(=O)N[C@@H](Cc1c[nH]c2ccccc12)C(N)=O)[C@@H](C)CC (stereo partly shown) [UM12] (H-RINNI[X1]W-NH2; N-terminus and C-terminus assumed) | 6800 ± 300 | 1.8E−03 ± 1.3 1/S | -19.7 | +9.9 kcal/mol | – | – | inhibition of negative control viruses pseudotyped with the VSV envelope [5]: Neither of these conjugates inhibited; direct binding to sCD4 (sCD4): neither UM10 nor UM12 exhibited direct binding; direct binding to 17b (mAb 17b): neither UM10 nor UM12 exhibited direct binding |
| CC[C@H](C)[C@H](NC(=O)[C@@H](N)CCC(=O)O)C(=O)N[C@@H](CC(N)=O)C(=O)N[C@@H](CC(N)=O)C(=O)N[C@H](C(=O)N1C[C@@H](n2cc([C]34[CH]5[CH]6[CH]7[CH]3[Fe]6754389%10[CH]4[CH]3[CH]8[CH]9[CH]4%10)nn2)C[C@H]1C(=O)N[C@@H](Cc1c[nH]c2ccccc12)C(=O)N[C@@H](CO)C(N)=O)[C@@H](C)CC (stereo partly shown) [UM13] (H-EINNI[X1]WS-NH2; N-terminus and C-terminus assumed) | 1200 ± 300 | 3.1E−03 ± 2 1/S | – | – | – | – | – |
| CC[C@H](C)[C@H](NC(=O)[C@H](CC(N)=O)NC(=O)[C@@H](N)CC(N)=O)C(=O)N1C[C@@H](n2cc([C]34[CH]5[CH]6[CH]7[CH]3[Fe]6754389%10[CH]4[CH]3[CH]8[CH]9[CH]4%10)nn2)C[C@H]1C(=O)N[C@@H](Cc1c[nH]c2ccccc12)C(N)=O (stereo partly shown) [UM17] (H-NNI[X1]W-NH2) | 33000 ± 11000 | 6.0E−03 ± 1.25 1/S | -13.2 | +3.3 kcal/mol | – | – | – |
| CC[C@H](C)[C@H](NC(=O)[C@H](CC(N)=O)NC(=O)[C@H](CC(N)=O)NC(=O)[C@@H](N)CCCNC(N)=O)C(=O)N1C[C@@H](n2cc([C]34[CH]5[CH]6[CH]7[CH]3[Fe]6754389%10[CH]4[CH]3[CH]8[CH]9[CH]4%10)nn2)C[C@H]1C(=O)N[C@@H](Cc1c[nH]c2ccccc12)C(=O)N[C@@H](CO)C(N)=O (stereo partly shown) [UM24] (H-[Cit]NNI[X1]WS-NH2; N-terminus and C-terminus assumed) | – | 2.9E−03 ± 1.2 1/S | -16.7 | +6.3 kcal/mol | – | – | Kd (HIV-1 YU2 gp120 [7]): ~21 nM |
| RINNIPWSEAMM [HNG-113] | – | – | – | – | 156 | no or minimal impact | synergy with CV-N (HIV-1 strain BaL [8]): does not synergize |
| RINNIPWSEAMM [HNG-124] | – | – | – | – | 418 | no or minimal impact | – |
| RINNIPWSEAMM [HNG-137] | – | – | – | – | 610 | no or minimal impact | – |
| dextran sulfate | – | – | – | – | – | – | IC50 (HIV-1 strain BaL [11]): 9800 nM; IC50, inhibition of infection by HIV-1 BaL (HIV-1 strain BaL [11]): 4.9 µg/mL; Viral infectivity inhibition IC50 (HIV-1 strain BaL [8]; agent alone): 0.900 microgram/milliliter |
